Results as given in the Deep4Chem optical property database.

Test: solvent given as SMILES

## C1=Cc2ccc(N(c3ccccc3)c3cccc4ccccc34)cc2C2(c3cc(N(c4ccccc4)c4cccc5ccccc45)ccc31)c1ccccc1-c1ccccc12
In ClCCl
  absorption maximum: 403 nm

## CC1(C)C2=[N+](CCCCCC(=O)NCNC(=O)CCCCCN3/C(=C/C=C/C=C/C=C/2)C(C)(C)c2cc(S(=O)(=O)[O-])ccc23)c2ccc(S(=O)(=O)[O-])cc21
In CO
  absorption maximum: 754 nm

## F[B-]1(F)OC(c2ccc(C(F)(F)F)cc2)=Cc2cc(Cl)nc[n+]21
In C1CCOC1
  absorption maximum: 371 nm
In CC#N
  absorption maximum: 368 nm
In CCCCCC
  absorption maximum: 370 nm
In Cc1ccccc1
  absorption maximum: 374 nm
In ClC(Cl)Cl
  absorption maximum: 372 nm
In ClCCl
  absorption maximum: 372 nm

## CCCCC(CC)Cn1c2cc(-c3ccc(N(c4ccccc4)c4ccccc4)cc3)c(C#N)cc2c2cc(C#N)c(-c3ccc(N(c4ccccc4)c4ccccc4)cc3)cc21 (stereo not given)
In ClCCl
  absorption maximum: 369 nm

## N#Cc1c(-c2ccccc2)cc(-c2ccccc2)[nH]c1=S
In C1COCCO1
  absorption maximum: 446 nm
In CC#N
  absorption maximum: 434 nm
In CCCCO
  absorption maximum: 441 nm
In CCCO
  absorption maximum: 431 nm
In CCO
  absorption maximum: 407 nm
In CCOC(C)=O
  absorption maximum: 430 nm
In CCOCC
  absorption maximum: 451 nm
In CN(C)C=O
  absorption maximum: 439 nm

## CCN(CC)c1ccc2c(-c3ccccc3C(=O)O)c3c([o+]c2c1)/C(=C/c1ccc(N(C)C)cc1)CCC3
In ClCCl
  absorption maximum: 689 nm

## c1ccc(-n2c(-c3ccc(N(c4ccc(-c5ccc(N(c6ccc(-c7nc8c9ccccc9c9ccccc9c8n7-c7ccccc7)cc6)c6ccc(-c7nc8c9ccccc9c9ccccc9c8n7-c7ccccc7)cc6)cc5)cc4)c4ccc(-c5nc6c7ccccc7c7ccccc7c6n5-c5ccccc5)cc4)cc3)nc3c4ccccc4c4ccccc4c32)cc1
In ClCCl
  absorption maximum: 376 nm

## N#Cc1cc(C#N)c(-c2ccc(N(c3ccccc3)c3ccccc3)cc2)cc1-c1ccc(N(c2ccccc2)c2ccccc2)cc1
In Cc1ccccc1
  absorption maximum: 394 nm

## CCOC(=O)CSc1nc(C)c(CC)c(C#N)c1C#N
In c1ccccc1
  absorption maximum: 357 nm

## CN(C)c1ccc2cc(C(/C=C/c3cn(C)c4ccccc34)=C(C#N)C#N)c(=O)oc2c1
In C1CCOC1
  absorption maximum: 455 nm
In C1COCCO1
  absorption maximum: 452 nm
In CN(C)C=O
  absorption maximum: 471 nm
In CS(C)=O
  absorption maximum: 477 nm
In ClCCl
  absorption maximum: 461 nm

## CC(C)(C)c1cc2c(c(C(C)(C)C)c1)O[B-](F)(F)[n+]1c-2nc(-c2ccccc2)c2ccccc21
In Cc1ccccc1
  absorption maximum: 410 nm

## CCNc1cc2oc(=O)c3c(=O)oc4ccccc4c3c2cc1C
In CS(C)=O
  absorption maximum: 454 nm
In ClCCl
  absorption maximum: 441 nm

## c1ccc(-c2cccc3ncc(-c4ccccc4)n23)cc1
In ClCCl
  absorption maximum: 337 nm

## Brc1ccc(-c2nc(-c3ccc(C#Cc4ccc(-n5c6ccccc6c6ccccc65)cc4)cc3)nc(-c3ccc(C#Cc4ccc(-n5c6ccccc6c6ccccc65)cc4)cc3)n2)cc1
In ClCCl
  absorption maximum: 357 nm

## CCCCN(CCCC)c1ccc(C#Cc2cc(C#Cc3c(F)c(F)c(F)c(F)c3F)c(C#Cc3ccc(N(CCCC)CCCC)cc3)cc2C#Cc2c(F)c(F)c(F)c(F)c2F)cc1
In ClCCl
  absorption maximum: 462 nm

## O=c1c2ccccc2n(-c2ccc(-c3ccc(-n4c5ccccc5c5ccccc54)cc3)cc2)c2ccccc12
In ClCCl
  absorption maximum: 394 nm

## c1ccc2c(c1)c1ccccc1n2-c1ccc2cc(-c3ccc(-c4ccc(-c5cc6ccc(-n7c8ccccc8c8ccccc87)cc6o5)cc4)cc3)oc2c1
In Cc1ccccc1
  absorption maximum: 369 nm
In c1ccc2c(c1)c1ccccc1n2-c1ccc(-c2ccc(-n3c4ccccc4c4ccccc43)cc2)cc1
  absorption maximum: 380 nm

## CC(=O)Nc1ccc2c(c1)c(=O)c1ccccc1n2CCCCCC(=O)O
In O
  absorption maximum: 398 nm

## c1ccc(-c2nc(-c3ccc(N(c4ccccc4)c4ccccc4)cc3)n3ccccc23)cc1
In C1CCCCC1
  absorption maximum: 352 nm
In CC#N
  absorption maximum: 350 nm
In CO
  absorption maximum: 348 nm
In ClCCl
  absorption maximum: 353 nm
In O
  absorption maximum: 360 nm

## CC(C)[Si](C#Cc1c2nsnc2c(C#C[Si](C(C)C)(C(C)C)C(C)C)c2nc3c(nc12)Cc1ccccc1-3)(C(C)C)C(C)C
In CCCCCC
  absorption maximum: 540 nm

## c1ccc(N2c3ccccc3Sc3cc(-c4cccc5nc6ccccc6cc45)ccc32)cc1
In C1CCOC1
  absorption maximum: 407 nm
In CC#N
  absorption maximum: 407 nm
In CC(C)=O
  absorption maximum: 407 nm
In CC(C)OC(C)C
  absorption maximum: 407 nm
In CCCCCC
  absorption maximum: 407 nm
In CCCCOCCCC
  absorption maximum: 407 nm
In CCN(CC)CC
  absorption maximum: 407 nm
In CCOC(C)=O
  absorption maximum: 407 nm
In CCOCC
  absorption maximum: 407 nm
In CN(C)C=O
  absorption maximum: 407 nm
In ClCCl
  absorption maximum: 407 nm

## Clc1ccccc1N1c2sc3ccccc3c2Sc2sc3ccccc3c21
In ClCCl
  absorption maximum: 314 nm

## O=P(c1ccccc1)(c1ccccc1)c1ccc(-n2c(-c3ccccc3P(=O)(c3ccccc3)c3ccccc3)nc3ccccc32)cc1
In ClCCl
  absorption maximum: 300 nm

## COc1ccc(C#Cc2ccc(C#Cc3ccc(P(=O)(c4ccc(C#Cc5ccc(C#Cc6ccc(OC)cc6)cc5)cc4)c4ccc(C#Cc5ccc(C#Cc6ccc(OC)cc6)cc5)cc4)cc3)cc2)cc1
In C1CCCCC1
  absorption maximum: 335 nm
In C1COCCO1
  absorption maximum: 336 nm
In CC#N
  absorption maximum: 334 nm
In CCO
  absorption maximum: 336 nm
In CS(C)=O
  absorption maximum: 338 nm
In ClC(Cl)Cl
  absorption maximum: 338 nm
In ClCCl
  absorption maximum: 338 nm

## Cc1ccc(C2=CC(c3ccc(C)cc3)=[N+]3C2=Nc2c(-c4ccc(C)cc4)cc(-c4ccc(C)cc4)n2[B-]3(F)F)cc1
In ClC(Cl)Cl
  absorption maximum: 652 nm

## CC(C)(C)c1ccc2c(c1)c1cc(C(C)(C)C)ccc1n2-c1ccc(C#Cc2ccc(C=C(C#N)C#N)cc2)cc1
In CC#N
  absorption maximum: 346 nm
In CCCCC
  absorption maximum: 345 nm
In Cc1ccccc1
  absorption maximum: 348 nm
In ClCCl
  absorption maximum: 410 nm

## Cc1cccc(C)c1N1C(c2ccccc2)=Cc2ccc3ccccc3[n+]2[B-]1(F)F
In ClCCl
  absorption maximum: 447 nm

## CC(C)(C)c1ccc2c(c1)c1cc(C(C)(C)C)ccc1n2-c1ccc2oc3nc4oc5cc(C(F)(F)F)ccc5c4cc3c2c1
In ClC(Cl)Cl
  absorption maximum: 346 nm

## O=c1c2ccccc2c2c3c(cccc13)c(-c1ccccc1)c1c3cccc4cccc(c43)c12
In CC#N
  absorption maximum: 462 nm
In CO
  absorption maximum: 461 nm

## Cc1cccc(C)c1
In C1CCCCC1
  absorption maximum: 259.74 nm

## Cc1ccc2[nH]c(-c3ccc(-c4ccc(-c5ccc(-c6nc7cc(C)ccc7[nH]6)cc5)cc4)cc3)nc2c1
In CN(C)C=O
  absorption maximum: 351 nm

## Oc1ccccc1
In C1CCCCC1
  absorption maximum: 265.96 nm

## COc1ccccc1C1=[N+]2C(=C(c3ccccc3)c3c4c(c(-c5ccccc5OC)n3[B-]2(F)F)C2C=CC4CC2)C2=C1C1C=CC2CC1 (stereo not given)
In ClCCl
  absorption maximum: 556 nm

## N#C/C(=C\c1ccc([N+](=O)[O-])cc1)c1nc(-c2ccccc2)cs1
In CC#N
  absorption maximum: 382 nm

## c1ccc2cc3c4c(ccc3cc2c1)-c1cccc2cccc-4c12
In CCCCCCC
  absorption maximum: 407 nm

## Cc1ccc(-c2nc(-c3ccc(O)cc3)[nH]c2-c2ccc(C)cc2)cc1
In CO
  absorption maximum: 295 nm

## CC1(C)C(/C=C/C2=C(Oc3ccc(CCN=C=S)cc3F)C(=C/C=C3/N(CCCS(=O)(=O)[O-])c4ccccc4C3(C)C)/CCC2)=[N+](CCCS(=O)(=O)[O-])c2ccccc21
In CO
  absorption maximum: 768 nm

## C[n+]1ccc2c(ccc3c[n+](C)ccc32)c1
In CC#N
  absorption maximum: 387 nm

## COc1ccc(-n2c3ccccc3c3c(C)cc4ccccc4c32)cc1
In ClCCl
  absorption maximum: 303 nm

## O=C1C2=C3c4ccsc4C=CN3C(=O)C2=C2c3ccsc3C=CN12
In CN(C)C=O
  absorption maximum: 575 nm
In ClC(Cl)Cl
  absorption maximum: 575 nm

## CCCCCCCCc1ccc(-n2c3c4ccccc4nc(-c4ccc(C#N)cc4)c3c3c2c2c(-c4ccc(C#N)cc4)nc4ccccc4c2n3-c2ccc(CCCCCCCC)cc2)cc1
In ClC(Cl)Cl
  absorption maximum: 314 nm

## CC1=[N+]2C(=C(c3ccccc3C)c3ccc(C)n3[B-]2(F)F)C=C1c1cc2n(c1)[B-](F)(F)[N+]1=CC=CC1=C2c1c(C)cc(C)cc1C
In C1CCCCC1
  absorption maximum: 595 nm
In CCOC(C)=O
  absorption maximum: 599 nm

## C(#Cc1ccccc1)C(C#Cc1ccccc1)=Cc1ccccc1
In ClC(Cl)Cl
  absorption maximum: 340 nm

## F[Si-](F)(c1c2ccccc2cc2ccccc12)(c1c2ccccc2cc2ccccc12)c1c2ccccc2cc2ccccc12
In C1CCOC1
  absorption maximum: 392 nm

## CC(=O)c1ccc(/C=C/C=C/C2=NC3C(=O)NC(N)=NC3N2[C@H]2C[C@H](O)[C@@H](CO)O2)cc1 (stereo not given in full)
In CC#N
  absorption maximum: 392 nm
In CO
  absorption maximum: 388 nm

## CCCCc1cc(-c2cccc(COC)c2)oc1-c1cccc(-c2oc(-c3cccc(COC)c3)cc2CCCC)c1
In ClC(Cl)Cl
  absorption maximum: 334 nm

## CC(=O)c1c(N[C@@H](CS)C(=O)O)c2ccc(N(C)C)cc2oc1=O
In ClCCl
  absorption maximum: 372 nm

## CCOC(=O)c1cc(C(=O)OCC)c2cc(O)ccc2n1
In CCO
  absorption maximum: 364 nm

## O=C1OC(=O)c2ccc(N(c3ccccc3)c3ccc4ccc5cccc6ccc3c4c56)c3cccc1c23
In C1CCOC1
  absorption maximum: 455 nm
In CCCCCC
  absorption maximum: 447 nm
In ClCCl
  absorption maximum: 465 nm
In c1ccccc1
  absorption maximum: 457 nm

## Cc1ccc2oc(-c3cc4cc(C)ccc4oc3=O)cc2c1
In CC#N
  absorption maximum: 372 nm
In CCOC(C)=O
  absorption maximum: 374 nm
In CS(C)=O
  absorption maximum: 377 nm
In Cc1ccccc1
  absorption maximum: 378 nm
In O
  absorption maximum: 351 nm

## Cc1cc(C)n2c1C=[N+]1[N+](=C3C=NC=CN3[B-]1(F)F)[B-]2(F)F
In ClCCl
  absorption maximum: 467 nm

## O=[N+]([O-])c1ccc(-c2nc3c(c4c2-c2ccccc2CC4)-c2ccccc2CC3)cc1
In C1CCOC1
  absorption maximum: 350 nm
In CC#N
  absorption maximum: 345 nm
In CCCCCC
  absorption maximum: 339 nm
In CCOC(C)=O
  absorption maximum: 339 nm
In CO
  absorption maximum: 334 nm
In CS(C)=O
  absorption maximum: 352 nm
In Cc1ccccc1
  absorption maximum: 351 nm
In ClCCl
  absorption maximum: 353 nm

## S=P1(c2ccccc2)c2cccc3c4c5ccccc5c5ccccc5c4c4ccc1n4c23 (stereo not given)
In ClCCl
  absorption maximum: 422 nm

## CCN(CC)c1c2ccc(=[N+]3CCCCC3)cc-2oc2cc(N3CCCCC3)ccc12
In ClCCl
  absorption maximum: 499 nm

## Cc1ccc(C2=C3C=C(I)C(I)=[N+]3[B-](F)(F)n3c2cc(I)c3I)cc1
In C1CCCCC1
  absorption maximum: 581 nm
In CC#N
  absorption maximum: 571 nm
In CCO
  absorption maximum: 577 nm
In CCOC(C)=O
  absorption maximum: 573.5 nm
In CO
  absorption maximum: 574.5 nm
In OCC(F)(F)F
  absorption maximum: 569 nm

## CC(C)(C)c1ccc2c(c1)c1cc(C(C)(C)C)ccc1n2-c1cc(C(=O)c2cccnc2)cc(-n2c3ccc(C(C)(C)C)cc3c3cc(C(C)(C)C)ccc32)c1
In Cc1ccccc1
  absorption maximum: 381 nm
